Tested on: Trypanosoma brucei
Test: Treatment of Trypanosoma Brucei-infected mice
Type: in vivo, T. brucei (EATRO 110) in mice (CD-1, males)
Settings: for Mice cured/Total: cured = surviving 30 days after all controls dead
Text: Illustrative of the effects of a compound of this invention (i.e., cis-5'-deoxy-5'-(4-amino-2-butenyl )methylaminoadenosine, identified below as MDL Compound) for the treatment of African Trypanosomiasis is an assay using Trypanosoma brucei-infected mice, as follows:
(a) includes those animals that died.
(b) MDL Compound was given intraperitoneally three times per day (8:30
a.m., 12:30 p.m. and 4:30 p.m,) for three consecutive days.
(c) Eflornithine was given in drinking water for three days.
Mice (20-22 g, CD-1, males) were infected with 2.5×10^5 T. brucei (EATRO 110) by intraperitoneal injection. Drug treatment commenced 24 h after infection. Mice surviving for 30 days after all controls were dead were considered cured. This method for drug testing is that of Bacchi et al. (1980) Science 210: 332-334, and successfully predicted the utility of eflornithine in human trypanosomiasis.

Row | SMILES | Mice cured/Total (dose 10 (unit not given), intraperitoneally three times per day for three consecutive days) | Mice cured/Total (dose 20 (unit not given), intraperitoneally three times per day for three consecutive days) | Mice cured/Total (dose 50 (unit not given), intraperitoneally three times per day for three consecutive days) | Days of Survival (includes those animals that died) (dose 50 (unit not given), intraperitoneally three times per day for three consecutive days, per animal) [days] | Mice cured/Total (2% in drinking water for three days)
1 | CN(C/C=C\CN)C[C@H]1O[C@@H](n2cnc3c(N)ncnc32)[C@H](O)[C@@H]1O [MDL Compound, CIS-5'-DEOXY-5'(4-AMINO-2-BUTENYL)METHYLAMINOADENOSINE] | 2/5 | 3/5 | 4/5 | 12 | –
2 | NCCCC(N)(C(=O)O)C(F)F (centres unmarked) [Eflornithine, reference compound] | – | – | – | – | 3/5

Reference: US5416076A, “S-adenosyl methionine decarboxylase inhibitors” (Merrell Dow Pharmaceuticals Inc., priority 1989, dated 1995)
